According to PubChem BioAssay AID1919009 (Molecular Pharmacology Branch, DTP, NCI, 2023):

Test system: K24384-001-R-PDC complex spheroid growth
Experiment: Anticancer human tumor K24384-001-R-PDC patient-derived pancreatic adenocarcinoma cell line growth inhibition [AhR]
Details: for IC50: curve of first compound; for viability, T/C: stronger effect = lower value; active = viability on the fitted dose curve at most 10% of control; inactive = the rest
Source text: Multicellular complex tumor spheroid response to aryl hydrocarbon receptor antagonists in combination with a variety of drugs and investigational agents in selected tumor cell lines
The current study was undertaken to assess response to aryl hydrocarbon receptor antagonists in combination with standard-of-care drugs and investigational agents in solid tumor complex spheroid models. Complex spheroids include a stromal component modeled by human endothelial cells (HUVEC) and fibroblasts modeled by human mesenchymal stem cells (MSCs). The concentration ranges selected for each drug and investigational agent were based upon clinically achievable concentrations if the clinical Cmax of the agent was known.
Compounds. The drugs and investigational agents: BAY 2416964 (NSC825713), GNF351 (NSC835774), CH-223191 (NSC835775), CPI-455 (NSC825282), aza-TdCyd (NSC777586), decitabine (NSC127716), belinostat (NSC758774), entinostat (NSC756642), pevonedistat (NSC761192), tazemetostat (NSC777109), talazoparib (NSC765396), olaparib (NSC753686), selinexor (NSC780203), nedisertib (M3814, NSC802822), bortezomib (NSC756655), venetoclax (NSC766270), doxorubicin (NSC123127), elimusertib (BAY189344, NSC800525), ceralasertib (AZD6738, NSC777638), TAK-243 (NSC785004), alisertib (NSC759677), etoposide (NSC141540), topotecan (NSC609699), eribulin (NSC707389), gemcitabine (NSC613327), carboplatin (NSC241240), cisplatin (NSC119875), and SN-38 (NSC673596) were obtained from the National Cancer Institute (NCI) Developmental Therapeutics Program Chemical Repository (32). The FDA-approved anticancer drug set is available from the Developmental Therapeutics Program at https://dtp.cancer.gov/organization/dscb/obtaining/available plates.htm. […] The stock solutions were prepared in dimethyl sulfoxide (DMSO, Sigma-Aldrich, St. Louis, MO, cat. D2650), except for the platinum compounds which were prepared in saline (Quality Biological, Gaithersburg, MD, cat. 114-055-101), at 800-fold the tested concentration and stored at -70 degrees C prior to their use. All drugs and investigational agents were tested over a range starting from a high concentration at or near the clinical Cmax and decreasing in half-log increments. If the clinical Cmax for an agent had not been determined, the highest concentration tested was 10 microM (Table 1).
Cell Culture. All cells were maintained in an incubator at 37 degrees C and 5% CO2 with 95% humidity. The PDC lines were cultured according to standard operating procedures established by the NCI PDMR (https://pdmr.cancer.gov). Briefly, all PDCs were thawed and cultured in Matrigel-coated flasks prepared with a working solution of 1X Ham's F-12 nutrient mix, without supplementation (Invitrogen, Waltham, MA, cat. 11765054), 100 U/mL penicillin-streptomycin (Invitrogen, cat. 15140122), and 2.5% Matrigel (Corning Inc., Corning, NY, cat. 354248) for the first three passages. All PDCs were cultured in complete DMEM/F-12 media containing advanced DMEM/F-12 (Invitrogen, cat. 12634028), 4.9% defined fetal bovine serum, heat inactivated (HyClone Laboratories Inc., Logan, UT, cat. SH30070.03HI), 389 ng/mL hydrocortisone (Sigma-Aldrich, cat. H4001), 9.7 ng/mL human EGF recombinant protein (Invitrogen, cat. PHG0313), 23.4 microg/mL adenine (Sigma-Aldrich, cat. A2786), 97.3 U/mL penicillin-streptomycin (Invitrogen, cat. 15140122), 1.9 mM L-glutamine (Invitrogen, cat. 25030081), and 9.7 microM Y-27632 dihydrochloride (Tocris Bioscience, Bristol, United Kingdom, cat. 1254). The PDCs were cultured in complete DMEM/F12 media without 10 microM Y-27632 dihydrochloride for at least two passages prior to the screen. The established cell lines NCI-H1341 and […] were cultured in DMEM/F-12, HEPES (Invitrogen, cat. 11330032), 5% defined fetal bovine serum (HyClone Laboratories Inc., cat. SH30070.03), ITS premix universal culture supplement [insulin (5 microg/mL), transferrin (5 microg/mL), and selenious acid (5 ng/mL)] […]
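Throughout, for viability, T/C: percent of DMSO vehicle-treated spheroid viability set as 100%.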

O=C(C=Cn1cnc(-c2cc(C(F)(F)F)cc(C(F)(F)F)c2)n1)NNc1cnccn1 + CC(CO)NC(=O)c1cc(-c2ccc(Cl)cc2)nn(-c2cnn(C)c2)c1=O
236 nM: IC50 (second compound 3.16 µM)
246 nM: IC50 (second compound 1 µM)
212 nM: IC50 (second compound 10 µM)
298 nM: IC50 (second compound 0.316 µM)
inactive: viability, T/C (second compound 0.1 µM, first compound 0.00949 µM) 107% | viability, T/C (second compound 0.1 µM, first compound 0.03 µM) 108% | viability, T/C (second compound 0.1 µM, first compound 0.0949 µM) 80.1% | viability, T/C (second compound 0.1 µM, first compound 0.3 µM) 48.7% | viability, T/C (second compound 0.1 µM, first compound 0.949 µM) 34.1% | viability, T/C (second compound 0.1 µM, first compound 3 µM) 28.1% | viability, T/C (second compound 0.316 µM, first compound 0.00949 µM) 102% | viability, T/C (second compound 0.316 µM, first compound 0.03 µM) 99.3% | viability, T/C (second compound 0.316 µM, first compound 0.0949 µM) 74.8% | viability, T/C (second compound 0.316 µM, first compound 0.3 µM) 52% | viability, T/C (second compound 0.316 µM, first compound 0.949 µM) 30.5% | viability, T/C (second compound 0.316 µM, first compound 3 µM) 26.6% | viability, T/C (second compound 1 µM, first compound 0.00949 µM) 86.1% | viability, T/C (second compound 1 µM, first compound 0.03 µM) 102% | viability, T/C (second compound 1 µM, first compound 0.0949 µM) 72.1% | viability, T/C (second compound 1 µM, first compound 0.3 µM) 46.5% | viability, T/C (second compound 1 µM, first compound 0.949 µM) 33.4% | viability, T/C (second compound 1 µM, first compound 3 µM) 28.6% | viability, T/C (second compound 3.16 µM, first compound 0.00949 µM) 77.8% | viability, T/C (second compound 3.16 µM, first compound 0.03 µM) 94.3% | viability, T/C (second compound 3.16 µM, first compound 0.0949 µM) 79.6% | viability, T/C (second compound 3.16 µM, first compound 0.3 µM) 41.8% | viability, T/C (second compound 3.16 µM, first compound 0.949 µM) 29.6% | viability, T/C (second compound 3.16 µM, first compound 3 µM) 23.3% | viability, T/C (second compound 10 µM, first compound 0.00949 µM) 76.2% | viability, T/C (second compound 10 µM, first compound 0.03 µM) 82.3% | viability, T/C (second compound 10 µM, first compound 0.0949 µM) 70.7% | viability, T/C (second compound 10 µM, first compound 0.3 µM) 41% | viability, T/C (second compound 10 µM, first compound 0.949 µM) 29.3% | viability, T/C (second compound 10 µM, first compound 3 µM) 27.3%
280 nM: IC50 (second compound 0.1 µM)

CC[C@@]1(O)C(=O)OCc2c1cc1n(c2=O)Cc2cc3c(CN(C)C)c(O)ccc3nc2-1 + CC(CO)NC(=O)c1cc(-c2ccc(Cl)cc2)nn(-c2cnn(C)c2)c1=O
47.9 nM: IC50 (second compound 0.316 µM)
inactive: viability, T/C (second compound 0.1 µM, first compound 0.000316 µM) 103% | viability, T/C (second compound 0.1 µM, first compound 0.001 µM) 101% | viability, T/C (second compound 0.1 µM, first compound 0.00316 µM) 100% | viability, T/C (second compound 0.1 µM, first compound 0.01 µM) 87.7% | viability, T/C (second compound 0.1 µM, first compound 0.0316 µM) 64% | viability, T/C (second compound 0.1 µM, first compound 0.1 µM) 45.7% | viability, T/C (second compound 0.316 µM, first compound 0.000316 µM) 93.4% | viability, T/C (second compound 0.316 µM, first compound 0.001 µM) 111% | viability, T/C (second compound 0.316 µM, first compound 0.00316 µM) 99% | viability, T/C (second compound 0.316 µM, first compound 0.01 µM) 84.2% | viability, T/C (second compound 0.316 µM, first compound 0.0316 µM) 54.7% | viability, T/C (second compound 0.316 µM, first compound 0.1 µM) 42.2% | viability, T/C (second compound 1 µM, first compound 0.000316 µM) 94.2% | viability, T/C (second compound 1 µM, first compound 0.001 µM) 120% | viability, T/C (second compound 1 µM, first compound 0.00316 µM) 104% | viability, T/C (second compound 1 µM, first compound 0.01 µM) 71.2% | viability, T/C (second compound 1 µM, first compound 0.0316 µM) 57.3% | viability, T/C (second compound 1 µM, first compound 0.1 µM) 39.8% | viability, T/C (second compound 3.16 µM, first compound 0.000316 µM) 114% | viability, T/C (second compound 3.16 µM, first compound 0.001 µM) 103% | viability, T/C (second compound 3.16 µM, first compound 0.00316 µM) 90.9% | viability, T/C (second compound 3.16 µM, first compound 0.01 µM) 71.8% | viability, T/C (second compound 3.16 µM, first compound 0.0316 µM) 53.5% | viability, T/C (second compound 3.16 µM, first compound 0.1 µM) 39.1% | viability, T/C (second compound 10 µM, first compound 0.000316 µM) 87.6% | viability, T/C (second compound 10 µM, first compound 0.001 µM) 81.9% | viability, T/C (second compound 10 µM, first compound 0.00316 µM) 100% | viability, T/C (second compound 10 µM, first compound 0.01 µM) 67.3% | viability, T/C (second compound 10 µM, first compound 0.0316 µM) 52% | viability, T/C (second compound 10 µM, first compound 0.1 µM) 49.8%
76.3 nM: IC50 (second compound 0.1 µM)
42 nM: IC50 (second compound 3.16 µM)
31.7 nM: IC50 (second compound 1 µM)
> 100 nM: IC50 (second compound 10 µM)
